These results are taken from US20110028445A1, “Urea derivatives of benzomorphanes and related scaffolds, medicaments containing such compounds and their use” (BOEHRINGER INGELHEIM INTERNATIONAL GMBH, priority 2008, published 2011).

For the test, the target named is T1, 11β-HSD1 (Homo sapiens, UniProt P28845).
T1 construct: detecting cortisol generated from cortisterone by human liver microsomes; from tissue; host or cells: human liver microsomes
T1 sequence (P28845 whole entry): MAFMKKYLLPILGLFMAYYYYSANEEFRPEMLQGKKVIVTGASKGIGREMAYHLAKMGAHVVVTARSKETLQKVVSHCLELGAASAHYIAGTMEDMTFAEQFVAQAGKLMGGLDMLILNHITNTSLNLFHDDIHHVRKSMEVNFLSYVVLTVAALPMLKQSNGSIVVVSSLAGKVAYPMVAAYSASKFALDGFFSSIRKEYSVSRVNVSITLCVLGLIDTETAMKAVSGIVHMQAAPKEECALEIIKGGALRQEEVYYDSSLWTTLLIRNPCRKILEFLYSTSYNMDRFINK
Nature of the test: In vitro inhibition of 11β-HSD1, HTRF detection of cortisol generated by human liver microsomes. It is filed as biochemical. As to conditions: compound concentration 1 μM, 100% indicates no inhibition, zero or below zero indicates complete inhibition, cortisone 80 nM, 1 hour at 37° C., read-out: % CTL at 1 μM. As to the method:
Briefly, compounds were incubated for 1 hour at 37° C. in Tris buffer (20 mM tris, 5 mM EDTA, pH 6.0) containing NADPH (200 μM) and cortisone (80 nM). Cortisol generated in the reaction is then detected with a competitive immunoassay, involving two HTRF conjugates: cortisol linked to XL665 and anti-cortisol antibody labeled with Europium cryptate. The incubation period for detection reaction was typically 2 hours. The amount of cortisol is determined by reading the time-resolved fluorescence of the wells (Ex 320/75 nm; Em 615/8.5 nm and 665/7.5 nm). The ratio of the two emission signals is then calculated (Em665*10000/Em615). […] Each assay also contained a calibration curve with cortisol to transform the fluorescent data into cortisol concentrations. Percent inhibition of each compound was determined relative to the carbenoxolone signal and IC50 curves were generated.
The % CTL values of some example compounds at a concentration of 1 μM are provided in the following Table 2 wherein 100% indicates no inhibition and a value of zero or below zero indicates complete inhibition. The measurement of % CTL is described hereinbefore.
For orientation: Time-resolved FRET reads energy transfer from a long-lived donor to a nearby acceptor.
`CC1(C)[C@H]2Cc3ccccc3[C@]1(C)CCN2C(=O)N1CCC(O)(C(F)(F)F)CC1` [Example 72]: the remaining activity at 1 µM is -11%.

Take `CC1(C)[C@H]2Cc3c(O)cccc3[C@]1(C)CCN2C(=O)N1CCOCC1` [Example 3]: the remaining activity at 1 µM was found to be 84%.

In the case of `C[C@@H]1[C@H]2Cc3ccc(O)cc3[C@]1(C)CCN2C(=O)N1CCCCC1` [Example 20], the remaining activity at 1 µM was -39%.

Turning to `CC1(C)[C@H]2Cc3c(O)cccc3[C@]1(C)CCN2C(=O)N1C2CCC1CC(O)C2` (stereo partly shown) [Example 14], the remaining activity at 1 µM was -46%.

Consider `CC(C)(C)C1COc2ccccc2N1C(=O)N1CC[C@@]2(C)c3cccc(O)c3C[C@@H]1C2(C)C` (stereo partly shown) [Example 51], for which the remaining activity at 1 µM stood at 94%.

As for `COC1CCN(C(=O)N2CC[C@@]3(C)c4cccc(O)c4C[C@@H]2C3(C)C)CC1` [Example 12], the remaining activity at 1 µM is -39%.

For the compound `CC1(C)[C@H]2Cc3c(O)cccc3[C@]1(C)CCN2C(=O)N1CCc2ccc(O)cc2C1` [Example 58], the remaining activity at 1 µM is -37%.

For the compound `CC1(C)[C@H]2Cc3ccccc3[C@]1(C)CCN2C(=O)N1CCOC[C@H]1c1ccccc1` [Example 67], the remaining activity at 1 µM is 71%.

Consider `CC1(C)[C@H]2Cc3c(O)cccc3[C@]1(C)CCN2C(=O)N1CCC(CO)C1` (stereo partly shown) [Example 22], for which the remaining activity at 1 µM is -4%.

Take `CC1(C)[C@H]2Cc3c(O)cccc3[C@]1(C)CCN2C(=O)N1CCCC2(CCNC2=O)C1` (stereo partly shown) [Example 55]: the remaining activity at 1 µM is -31%.

Take `CC1(C)[C@H]2Cc3ccccc3[C@]1(C)CCN2C(=O)N1CCC(CCO)(c2ccccc2)C1` (stereo partly shown) [Example 77]: the remaining activity at 1 µM came to 30%.

As to `CC1(O)CCN(C(=O)N2CC[C@@]3(C)c4ccccc4C[C@@H]2C3(C)C)CC1` [Example 54], the remaining activity at 1 µM was -25%.

Take `CC(C)(O)C1CCN(C(=O)N2CC[C@@]3(C)c4ccccc4C[C@@H]2C3(C)C)CC1` [Example 65]: the remaining activity at 1 µM stood at 2%.

For `CC1(C)[C@H]2Cc3c(O)cccc3[C@]1(C)CCN2C(=O)N1CCc2nc[nH]c2C1` [Example 15], the remaining activity at 1 µM was 14%.

As for `CC1(C)[C@H]2Cc3c(O)cccc3[C@]1(C)CCN2C(=O)N1CCc2cccc(O)c2C1` [Example 46, (8-Hydroxy-3,4-dihydro-1H-isoquinolin-2-yl)-[(2R,6S)-10-hydroxy-6,11,11-trimethyl-1,2,5,6-tetrahydro-4H-2,6-methano-benzo[d]azocin-3-yl]-methanone], the remaining activity at 1 µM is -10%.

Consider `CC1(C)[C@H]2Cc3c(O)cccc3[C@]1(C)CCN2C(=O)N1CCc2ccsc2C1` [Example 7, (4,7-Dihydro-5H-thieno[2,3-c]pyridin-6-yl)-[(2R,6S)-10-hydroxy-6,11,11-trimethyl-1,2,5,6-tetrahydro-4H-2,6-methano-benzo[d]azocin-3-yl]-methanone], for which the remaining activity at 1 µM is -32%.

Regarding `CC1(C)[C@H]2Cc3c(O)cccc3[C@]1(C)CCN2C(=O)N1Cc2ccccc2C1` [Example 10], the remaining activity at 1 µM is 53%.

In the case of `CC1(C)[C@H]2Cc3c(OCc4ccccc4)cccc3[C@]1(C)CCN2C(=O)N1CCCCC1` [Example 32], the remaining activity at 1 µM was 82%.

Regarding `CC1(C)[C@H]2Cc3c(O)cccc3[C@]1(C)CCN2C(=O)N1CCCc2cc(NC(=O)C(F)(F)F)ccc21` [Example 49], the remaining activity at 1 µM was determined as 23%.
